Measurements from patent publication US20180177778A1, “Methods for Treating HCV” (priority 2015, published 2018).

Assays:
[1] = Effect of food on bioavailability of co-formulated tablets, healthy Japanese subjects (Example 20); format: in vivo, human; details: for Tmax: both sexes, mean Tmax
Text: Japanese male and female volunteers 20 to 55 years of age in general good health with a body mass index ≥18.5 and <25 kg/m^2 were eligible to enroll. Subjects who had positive test results for hepatitis A, B, or C, or for HIV infection, and subjects who were using known inhibitors or inducers of CYP3A isozyme or organic anion transporting polypeptide 1B1 (OATP1B1) inhibitors were excluded from participation. Subjects were not to have consumed alcohol, grapefruit, star fruit, or Seville oranges within 72 hours, or to have used nicotine-containing products within 6 months before study drug administration.
This was a 2-sequence 2-period crossover study. A single dose of two ombitasvir/paritaprevir/ritonavir 12.5/75/50 mg coformulated tablets (total dose of 25/150/100 mg) was administered in the morning on Study Day 1 of each period as follows:
PK parameters for ombitasvir, paritaprevir, and ritonavir were estimated by noncompartmental methods using Phoenix WinNonlin, version 6.3 (Pharsight, A Certara® Company, St. Louis, Mo.) including maximum plasma concentration (Cmax), time to Cmax (Tmax), area under the plasma concentration-time curve (AUC), and terminal-phase elimination half-life (t1/2). The effect of food on the bioavailability of ombitasvir, paritaprevir, and ritonavir was assessed using a repeated measures analysis of natural logarithms of Cmax and AUC values. Point estimates of central value ratios and their 90% confidence intervals (CIs) for Cmax and AUC were calculated to quantify the magnitude of food effect. Statistical analyses were conducted using SAS, version 9.2 (SAS Institute, Inc., Cary, N.C.).

[2] = Population pharmacokinetics in HCV GT1 subjects with CKD Stage 4 or 5 (Example 17); format: in vivo, human; details: vs subjects without kidney disease
Experimental: Pharmacokinetic data from a Phase 2 study (N=38) in subjects with normal or mild renal impairment (subjects “without kidney disease”) were combined with preliminary data from a Phase 3b study in subjects with CKD Stage 4 (N=5) or Stage 5 on hemodialysis (N=14). In both studies subjects received OBV/PTV/r 25/150/100 mg QD and DSV 250 mg BID±RBV for 12 weeks. Pharmacokinetic parameters and steady-state exposures of the 3-DAA regimen were estimated using population pharmacokinetic models.

[3] = human, in vivo
Experimental: All subjects received ombitasvir/paritaprevir/ritonavir 25/150/100 mg QD and dasabuvir 250 mg BID±weight based RBV. DAAs (OBV, PTV, or DSV) and RTV AUC values were available from 2093 subjects and RBV AUC values were available from 1584 subjects. The dataset included subjects with normal renal function (NF) (CrCl ≥90 mL/min, n=1495), mild renal impairment (RI) (CrCL 60-89 mL/min, n=576) and moderate RI (CrCL 30-59 mL/min, n=22). […] CrCL was retained in the models, regardless of its statistical significance, to determine the effect, if any, on the AUC values.

[4] = in vivo; cited from earlier work

## Cc1cnc(C(=O)N[C@H]2CCCCC/C=C\[C@@H]3C[C@@]3(C(=O)NS(=O)(=O)C3CC3)NC(=O)[C@@H]3C[C@@H](Oc4nc5ccccc5c5ccccc45)CN3C2=O)cn1 [Compound 1, (2R,6S,13aS,14aR,16aS,Z)—N-(cyclopropylsulfonyl)-6-(5-methylpyrazine-2-carboxamido)-5,16-dioxo-2-(phenanthridin-6-yloxy)-1,2,3,5,6,7,8,9,10,11,13a,14,14a,15,16,16a-hexadecahydrocyclopropa[e]pyrrolo[1,2-a][1,4]diazacyclopentadecine-14a-carboxamide]
[1]; human, in vivo
  Tmax: 4.2 h
[1]; both, human, in vivo
  increase of mean AUC: 228%
  mean Tmax: 5.2 h

## COc1c(-c2ccc3cc(NS(C)(=O)=O)ccc3c2)cc(-n2ccc(=O)[nH]c2=O)cc1C(C)(C)C [Compound 3, N-(6-(3-tert-butyl-5-(2,4-dioxo-3,4-dihydropyrimidin-1(2H)-yl)-2-methoxyphenyl)naphthalen-2-yl)methanesulfonamide]
[2]
  exposures lower in CKD Stage 5: ~37%

## NC(=O)c1ncn([C@@H]2O[C@H](CO)[C@@H](O)[C@H]2O)n1 [Ribavirin, ribavirin]
[3]
  AUC values higher in mild/moderate RI compared to NF: up to 17%
[4]
  absolute bioavailability: approximately 50%

## CC(C)c1nc(CN(C)C(=O)N[C@H](C(=O)N[C@@H](Cc2ccccc2)C[C@H](O)[C@H](Cc2ccccc2)NC(=O)OCc2cncs2)C(C)C)cs1 [ritonavir, reference compound]
[2]
  exposures higher in CKD Stage 4 subjects: ~200%
  exposures lower in CKD Stage 5: about 33%
[1]; human, in vivo
  Tmax: 3.4 h
[1]; both, human, in vivo
  increase of mean AUC: 34%
  mean Tmax: 4.9 h

## dimethyl (2S,2′S)-1,1′-((2S,2′S)-2,2′-(4,4′-((2S,5S)-1-(4-tert-butylphenyl)pyrrolidine-2,5,diyl)bis(4,1-phenylene))bis(azanediyl)bis(oxomethylene)bis(pyrrolidine-2,1-diyl)bis(3-methyl-1-oxobutane-2,1-diyl)dicarbamate [Compound 2]
[2]
  exposures higher in CKD Stage 4 subjects: about 80%
[1]; fasting conditions, single dose 25/150/100 mg
  mean Tmax: 4.4 h
[1]; high fat meal relative to fasting, Japanese subjects
  increase of mean AUC: 73%
[1]; with a high fat meal, single dose 25/150/100 mg
  mean Tmax: 5.3 h
